The test system of this experiment is youth with ASD. Put plainly: 12-week RCT: associated psychopathology and global functioning (ADHD-RS, CASI-ANX, CDRS-R, GAF). The experiment is classed as in vivo, human. Particulars: MEM [N = 16]. As for the experimental part:
This study was a 12-week, randomized, double-blind, placebo-controlled, parallel group clinical trial of memantine in youth with ASD. Youth with ASD who met the eligibility criteria were randomized to receive either memantine or placebo during the course of the 12-week trial. Participants underwent multimodal MRI scans prior to and upon completion of the 12-week trial. Participants were assessed weekly during the titration phase (baseline to Week 4) and at midpoint (Week 6), Week 9, and completion (Week 12) during the maintenance phase. At each study visit, safety and efficacy were assessed by administering measures of efficacy (CGI, GAF), tolerability (assessing treatment-emergent AEs), and safety (vital signs, including weight). At baseline, midpoint, and endpoint (completion/early termination) severity of autism was assessed by administering measures of autism severity (SRS-2, ABC-SW, CY-BOCS-PDD) and associated psychopathology (ADHD-RS, CDRS-R, CASI-ANX).
Additional treatment response of autism impairment was examined for the ASD subdomains by assessing change with treatment in the severity of the SRS-2 subscales and the Children's Yale Brown Obsessive Compulsive Scale modified for PDD (CY-BOCS-PDD) (Goodman et al., 1986 (Rev 89); Scahill et al., 2006) to assess change with treatment in the ritualistic behaviors associated with ASD. Treatment response of frequently associated psychopathologies with ASD was assessed by administering the clinician-rated Attention Deficit Hyperactivity Disorder Rating Scale (ADHD-RS) (DuPaul, Power, Anastopoulos, & Reed, 1998), Children's Depression Rating Scale-Revised (CDRS-R)(Poznanski et al., 1985), and CASI-4 ASD Anxiety Scale (CASI-4 ASD Anxiety Scale (CASI-Anx)(Gadow et al., 2002). Change with treatment in the level of global functioning was assessed by the clinician-rated GAF.
The mixed-effects regression models used to analyze the secondary measures of efficacy predicted the outcome measure from treatment group (memantine versus placebo), study visit (continuous), and the treatment group-by-study visit interaction, which is our test of efficacy. To examine the effect of baseline PgACC glutamate activity level on the response to treatment, we predicted outcomes measures from treatment group, study visit (continuous), PgACC glutamate activity level (continuous), treatment group-by-study visit interaction, glutamate activity level-by-study visit interaction, treatment group-by-glutamate activity level interaction, and treatment group-by-glutamate activity level-by-study visit interaction. All mixed-effects regression models had random intercepts by subject ID, used robust standard errors to account for the repeated measures on each subject, and used an independent covariance structure for the random effects. […] All missing data were assumed to be missing at random.
Effect sizes are presented as standardized mean differences (SMD) for continuous outcomes and odds ratios (OR) for dichotomous outcomes. The SMDs for the difference of the changes in scores over time between memantine and placebo and between high glutamate and normal glutamate were calculated as Cohen's d using the following calculations: the difference in the change scores between the two groups divided by the pooled standard deviation. The SMDs for changes in scores within groups were calculated as Cohen's d using the following calculation: difference in score from baseline to endpoint divided by the pooled standard deviation. For comparisons of memantine versus placebo and high glutamate versus normal glutamate, positive SMDs and ORs>1 indicate better improvement in the memantine group and high glutamate group, respectively. For comparisons of ASD versus healthy controls, positive SMDs indicate lower glutamate activity levels in the ASD group. […]

The structures appear in SMILES notation.

Where the note is “BL (baseline)”, `CC12CC3CC(C)(C1)CC(N)(C3)C2` [MEM, memantine] registered an ADHD-RS of 29.1 ± 13.6, a CASI-ANX of 14.7 ± 8.6, a CDRS-R of 31.4 ± 17.1 and a GAF of 53.6 ± 2.7. Further, under “EP (endpoint)”, the ADHD-RS is 18.8 ± 10.9, the CASI-ANX is recorded as 7.4 ± 5.6, the CDRS-R amounted to 22.8 ± 7.5 and the GAF came to 61.8 ± 4.4. Besides, where the note is “MD (mean difference)”, the ADHD-RS is −10.3 ± 10.6, the CASI-ANX is −7.3 ± 6.2, the CDRS-R was −8.7 ± 10.8 and the GAF was found to be 8.2 ± 5.9.

The values are drawn from patent US20240130675A1, “Methods for Treating Autism Spectrum Disorder” (The General Hospital Corporation, priority 2021, published 2024).
